In US10710994B2, “Oxadiazole transient receptor potential channel inhibitors” (Genentech, Inc., priority 2018, dated 2020):
pIC50: −log10 of the molar value. Where two headings read alike, the source gives them in different places.

Molecular target: human TRPA1 channel (Homo sapiens (Human), UniProt O75762)
Experiment: hTRPA1 CHO Ca2+ FLIPR Tetra assay: block of cinnamaldehyde induced calcium influx
Format: cell-based
Details: CHO cells expressing TRPA1, Hill coefficient fixed to 1.5
Summary of the method: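 TRPA1-expressing CHO cells loaded with calcium indicator dye (1 h 37° C, then 15 min room temperature) in HBSS/20 mM HEPES pH 7.4/0.02% BSA. IC50 from fits with fixed Hill coefficient.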

[1] = read-out: hTRPA1 IC50 10 min, 10 minutes incubation with compound before cinnamaldehyde (about EC80)
[2] = read-out: hTRPA1 IC50 90 min, 90 minutes incubation with compound before cinnamaldehyde (about EC80)

Sequence of human TRPA1 channel (O75762 whole entry): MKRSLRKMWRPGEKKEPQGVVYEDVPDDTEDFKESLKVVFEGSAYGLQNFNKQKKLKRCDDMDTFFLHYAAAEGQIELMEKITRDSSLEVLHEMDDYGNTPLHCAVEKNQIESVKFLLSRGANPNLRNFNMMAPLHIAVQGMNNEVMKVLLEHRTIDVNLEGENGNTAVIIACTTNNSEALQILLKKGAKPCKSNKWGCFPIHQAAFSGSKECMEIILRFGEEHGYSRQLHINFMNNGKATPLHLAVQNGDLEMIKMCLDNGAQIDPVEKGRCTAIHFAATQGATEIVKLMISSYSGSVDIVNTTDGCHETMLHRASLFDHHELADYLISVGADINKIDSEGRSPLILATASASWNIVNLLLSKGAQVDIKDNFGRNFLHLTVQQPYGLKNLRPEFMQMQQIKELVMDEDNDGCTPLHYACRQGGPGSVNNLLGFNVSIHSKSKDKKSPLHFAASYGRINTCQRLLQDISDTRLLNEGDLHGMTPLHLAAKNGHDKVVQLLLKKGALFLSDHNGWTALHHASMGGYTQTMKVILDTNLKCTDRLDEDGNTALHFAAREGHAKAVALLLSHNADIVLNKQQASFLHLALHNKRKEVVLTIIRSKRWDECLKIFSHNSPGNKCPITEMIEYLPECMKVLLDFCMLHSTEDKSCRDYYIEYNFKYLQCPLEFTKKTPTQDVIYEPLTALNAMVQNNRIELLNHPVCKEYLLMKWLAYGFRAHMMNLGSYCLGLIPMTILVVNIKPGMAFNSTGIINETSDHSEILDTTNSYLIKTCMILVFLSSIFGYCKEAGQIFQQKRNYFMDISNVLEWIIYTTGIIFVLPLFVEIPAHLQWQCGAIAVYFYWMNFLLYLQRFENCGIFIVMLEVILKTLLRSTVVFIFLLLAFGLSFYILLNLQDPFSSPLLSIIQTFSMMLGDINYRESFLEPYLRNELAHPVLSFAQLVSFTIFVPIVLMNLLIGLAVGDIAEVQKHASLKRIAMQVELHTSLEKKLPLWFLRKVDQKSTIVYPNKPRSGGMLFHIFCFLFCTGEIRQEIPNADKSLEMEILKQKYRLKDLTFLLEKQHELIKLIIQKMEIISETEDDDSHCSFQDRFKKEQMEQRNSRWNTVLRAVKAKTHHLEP

Row | pIC50 [1] | pIC50 [2] | pIC50 (hTRPA1 IC50 10 min, 10 minutes incubation with compound before cinnamaldehyde (about EC80)) | pIC50 (hTRPA1 IC50 90 min, 90 minutes incubation with compound before cinnamaldehyde (about EC80)) | Structure (SMILES)
1 | 6.84 | 7.06 | – | – | Cn1cnc2ncn(Cc3nc([C@@H]4CO[C@@H](c5ccc6ncsc6c5)C4)no3)c(=O)c21 [Example 53, 1-((3-((3R,5R)-5-(benzo[d]thiazol-6-yl)tetrahydrofuran-3-yl)-1,2,4-oxadiazol-5-yl)methyl)-7-methyl-1,7-dihydro-6H-purin-6-one]
2 | 7.72 | 7.92 | – | – | Cn1cnc2ncn(Cc3nc([C@@H]4CO[C@@H](c5ccc(Cl)cc5)C4)no3)c2c1=O [Example 55, 7-((3-((3R,5R)-5-(4-chlorophenyl)tetrahydro-furan-3-yl)-1,2,4-oxadiazol-5-yl)methyl)-1-methyl-1,7-dihydro-6H-purin-6-one]
3 | 8.38 | 8.52 | – | – | Cn1cnc2ncn(Cc3nc([C@@H]4CO[C@@H](c5ccc(Cl)cc5)C4)no3)c(=S)c21 [Example 59, 1-((3-((3R,5R)-5-(4-chlorophenyl)tetrahydro-furan-3-yl)-1,2,4-oxadiazol-5-yl)methyl)-7-methyl-1,7-dihydro-6H-purine-6-thione]
4 | 7.81 | 7.92 | – | – | Nc1ccc2c(=O)n(Cc3nc([C@@H]4CO[C@@H](c5ccc(F)cc5)C4)no3)cnc2n1 [Example 60, 7-amino-3-((3-((3R,5R)-5-(4-fluorophenyl)tetrahydrofuran-3-yl)-1,2,4-oxadiazol-5-yl)methyl)pyrido[2,3-d] pyrimidin-4(3H)-one]
5 | 8.33 | 8.68 | – | – | Cn1nnc2ccn(Cc3nc([C@@H]4CO[C@@H](c5ccc(Cl)cc5)C4)no3)c(=O)c21 [Example 61, 5-((3-((3R,5R)-5-(4-chlorophenyl)tetrahydro-furan-3-yl)-1,2,4-oxadiazol-5-yl)methyl)-3-methyl-3,5-dihydro-4H-[1,2,3]triazolo[4,5-c]pyridin-4-one]
6 | 8.08 | 8.57 | – | – | Nc1nc2ncccc2c(=O)n1Cc1nc([C@@H]2CO[C@@H](c3ccc(Cl)cc3)C2)no1 [Example 62, 2-amino-3-((3-((3R,5R)-5-(4-chlorophenyl)tetrahydrofuran-3-yl)-1,2,4-oxadiazol-5-yl)methyl)pyrido[2,3-d] pyrimidin-4(3H)-one]
7 | 8.07 | 8.80 | – | – | Cc1cnn2ncn(Cc3nc([C@@H]4CO[C@@H](c5ccc(F)cc5)C4)no3)c(=O)c12 [Example 66, 3-((3-((3R,5R)-5-(4-fluorophenyl)tetrahydro-furan-3-yl)-1,2,4-oxadiazol-5-yl)methyl)-5-methylpyrazolo[5,1-f] [1,2,4]triazin-4(3H)-one]
8 | 7.34 | 7.57 | – | – | Cn1cnc2ncn(Cc3nc([C@@H]4CO[C@@H](c5ccc(C6CC6)cc5)C4)no3)c(=O)c21 [Example 68, 1-((3-((3R,5R)-5-(4-cyclopropylphenyl)tetrahydrofuran-3-yl)-1,2,4-oxadiazol-5-yl)methyl)-7-methyl-1,7-dihydro-6H-purin-6-one]
9 | – | 7.60 | – | – | Cc1ncn2ncn(Cc3nc([C@@H]4CO[C@@H](c5ccc(F)cc5)C4)no3)c(=O)c12 [Example 75, 3-((3-((3R,5R)-5-(4-fluorophenyl)tetrahydro-furan-3-yl)-1,2,4-oxadiazol-5-yl)methyl)-5-methylimidazo[5,1-f][1,2,4]triazin-4(3H)-one]
10 | – | 7.96 | – | – | Cn1c(C(F)F)nc2ncn(Cc3nc([C@@H]4CO[C@@H](c5ccc(Cl)cc5)C4)no3)c(=O)c21 [Example 76, 1-((3-((3R,5R)-5-(4-chlorophenyl)tetrahydro-furan-3-yl)-1,2,4-oxadiazol-5-yl)methyl)-8-(difluoro-methyl)-7-methyl-1,7-dihydro-6H-purin-6-one]
11 | – | 7.18 | – | – | NC(=O)c1ccc2c(=O)n(Cc3nc([C@@H]4CO[C@@H](c5ccc(Cl)cc5)C4)no3)cnc2n1 [Example 77, 3-((3-((3R,5R)-5-(4-chlorophenyl)tetrahydro-furan-3-yl)-1,2,4-oxadiazol-5-yl)methyl)-4-oxo-3,4-dihydropyrido[2,3-d] pyrimidine-7-carboxamide]
12 | – | 7.04 | – | – | Cc1nc(NC2CNC2)n2ncn(Cc3nc([C@@H]4CO[C@@H](c5ccc(Cl)cc5)C4)no3)c(=O)c12 [Example 79]
13 | – | 6.74 | – | – | Cc1nc(N2CC(CN)C2)n2ncn(Cc3nc([C@@H]4CO[C@@H](c5ccc(Cl)cc5)C4)no3)c(=O)c12 [Example 80, 7-(3-(aminomethyl)azetidin-1-yl)-3-((3-((3R,5R)-5-(4-chlorophenyl)tetrahydro-furan-3-yl)-1,2,4-oxadiazol-5-yl)methyl)-5-methylimidazo[5,1-f] [1,2,4]triazin-4(3H)-one]

Further lines, the compound ahead of its results:

Row | Structure (SMILES) | pIC50 [1] | pIC50 [2] | pIC50 (hTRPA1 IC50 10 min, 10 minutes incubation with compound before cinnamaldehyde (about EC80)) | pIC50 (hTRPA1 IC50 90 min, 90 minutes incubation with compound before cinnamaldehyde (about EC80))
14 | COc1nccc2c(=O)n(Cc3nc([C@@H]4CO[C@@H](c5ccc(Cl)cc5)C4)no3)cnc12 [Example 52, 3-((3-((3R,5R)-5-(4-chlorophenyl)tetrahydro-furan-3-yl)-1,2,4-oxadiazol-5-yl)methyl)-8-methoxypyrido[3,4-d]pyrimidin-4(3H)-one] | 7.02 | 6.85 | – | –
15 | Cc1ccnc2ncn(Cc3nc([C@@H]4CO[C@@H](c5ccc(Cl)cc5)C4)no3)c(=O)c12 [Example 54, 3-((3-((3R,5R)-5-(4-chlorophenyl)tetrahydro-furan-3-yl)-1,2,4-oxadiazol-5-yl)methyl)-5-methylpyrido[2,3-d] pyrimidin-4(3H)-one] | 8.67 | 9.14 | – | –
16 | Cn1cnc2ccn(Cc3nc([C@@H]4CO[C@@H](c5ccc(F)cc5)C4)no3)c(=O)c21 [Example 56, 5-((3-((3R,5R)-5-(4-fluorophenyl)tetrahydro-furan-3-yl)-1,2,4-oxadiazol-5-yl)methyl)-3-methyl-3,5-dihydro-4H-imidazo[4,5-c]pyridin-4-one] | 8.17 | 8.72 | – | –
17 | Cn1cnc2cnn(Cc3nc([C@@H]4CO[C@@H](c5ccc(Cl)cc5)C4)no3)c(=O)c21 [Example 57, 5-((3-((3R,5R)-5-(4-chlorophenyl)tetrahydro-furan-3-yl)-1,2,4-oxadiazol-5-yl)methyl)-3-methyl-3,5-dihydro-4H-imidazo[4,5-d] pyridazin-4-one] | 7.41 | 7.74 | – | –
18 | Cc1ccnc2ncn(Cc3nc([C@@H]4CO[C@@H](c5ccc(Cl)cc5)C4)no3)c(=O)c12 [Example 58, 3-((3-((3R,5R)-5-(4-chlorophenyl)tetrahydro-furan-3-yl)-1,2,4-oxadiazol-5-yl)methyl)-5-methylpyrido[2,3-d] pyrimidin-4(3H)-one] | 7.16 | 7.28 | – | –
19 | Cc1cc(=O)nc2ccn(Cc3nc([C@@H]4CO[C@@H](c5ccc(Cl)cc5)C4)no3)c(=O)n12 [Example 63] | 8.03 | 8.55 | – | –
20 | Cc1ncn2ncn(Cc3nc([C@@H]4CO[C@@H](c5ccc(Cl)cc5)C4)no3)c(=O)c12 [Example 64, 3-((3-((3R,5R)-5-(4-chlorophenyl)tetrahydro-furan-3-yl)-1,2,4-oxadiazol-5-yl)methyl)-5-methylimidazo[1,5-f] [1,2,4]triazin-4(3H)-one] | 7.69 | 7.82 | – | –
21 | COc1ccc([C@H]2C[C@H](c3noc(Cn4cnc5ncn(C)c5c4=O)n3)CO2)cc1 [Example 65, 1-((3-((3R,5R)-5-(4-methoxyphenyl)tetrahydrofuran-3-yl)-1,2,4-oxadiazol-5-yl)methyl)-7-methyl-1,7-dihydro-6H-purin-6-one] | – | – | 6.86 | 7.17
22 | Cc1cncc2ncn(Cc3nc([C@@H]4CO[C@@H](c5ccc(F)cc5)C4)no3)c(=O)c12 [Example 67, 3-((3-((3R,5R)-5-(4-fluorophenyl)tetrahydro-furan-3-yl)-1,2,4-oxadiazol-5-yl)methyl)-5-methylpyrido[3,4-d] pyrimidin-4(3H)-one] | 7.97 | 8.92 | – | –
23 | Cn1cnc2ncn(Cc3nc([C@@H]4CO[C@@H](c5ccc(F)cc5)C4)no3)c2c1=O [Example 69, 7-((3-((3R,5R)-5-(4-fluorophenyl)tetrahydro-furan-3-yl)-1,2,4-oxadiazol-5-yl)methyl)-1-methyl-1,7-dihydro-6H-purin-6-one] | 7.23 | 7.47 | – | –
24 | Cn1cnc2nc(N)n(Cc3nc([C@@H]4CO[C@@H](c5ccc(Cl)cc5)C4)no3)c(=O)c21 [Example 71, 2-amino-1-((3-((3R,5R)-5-(4-chlorophenyl)tetrahydrofuran-3-yl)-1,2,4-oxadiazol-5-yl)methyl)-7-methyl-1,7-dihydro-6H-purin-6-one] | 7.74 | 8.82 | – | –
25 | O=c1c2c(ncn1Cc1nc([C@@H]3CO[C@@H](c4ccc(Cl)cc4)C3)no1)CNCC2 [Example 73, 3-((3-((3R,5R)-5-(4-chlorophenyl)tetrahydro-furan-3-yl)-1,2,4-oxadiazol-5-yl)methyl)-5,6,7,8-tetrahydropyrido [3,4-d]pyrimidin-4(3H)-one] | – | 7.66 | – | –
26 | Cn1cnc2nc(N)n(Cc3nc([C@@H]4CO[C@@H](c5ccc(S(F)(F)(F)(F)F)cc5)C4)no3)c(=O)c21 [Example 74, 2-amino-7-methyl-1-((3-((3R,5R)-5-(4-(pentafluoro-16-sulfanyl)phenyl)tetrahydrofuran-3-yl)-1,2,4-oxadiazol-5-yl)methyl)-1,7-dihydro-6H-purin-6-one] | 6.77 | 6.92 | – | –
27 | Cc1nc(NC2CCN(C)CC2)n2ncn(Cc3nc([C@@H]4CO[C@@H](c5ccc(Cl)cc5)C4)no3)c(=O)c12 [Example 78, 3-((3-((3R,5R)-5-(4-chlorophenyl)tetrahydro-furan-3-yl)-1,2,4-oxadiazol-5-yl)methyl)-5-methyl-7-((1-methylpiperidin-4-yl)amino)imidazo[5,1-f] [1,2,4]triazin-4(3H)-one] | – | 6.82 | – | –
